Results as given in PubChem BioAssay AID330 (DTP/NCI, 2004).
Toxic doses and inconclusive results are not listed. Rule for the calls: active = survival T/C of 150% or more; inactive = T/C below 125% in these data.

System: P388 leukemia ip, CD2F1 mice, survival T/C
Assay: NCI In Vivo Anticancer Drug Screen. Data for tumor model P388 Leukemia (intraperitoneal) in CD2F1 (CDF1) mice
Conditions: endpoint: median survival time, higher = longer survival
Outline: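 Mice carrying the transplanted tumor received test compound or vehicle. Survival was recorded in each group, and the value is the treated-group measurement divided by that of the vehicle-treated control group.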

[1] = dose: 60.0 mg/kg/injection, schedule: Q01DX005 (ip), vehicle: saline with Tween-80
[2] = dose: 120.0 mg/kg/injection, schedule: Q01DX005 (ip), vehicle: saline with Tween-80
[3] = dose: 240.0 mg/kg/injection, schedule: Q01DX005 (ip), vehicle: saline with Tween-80
[4] = dose: 50.0 mg/kg/injection, schedule: Q01DX005 (ip), vehicle: Klucel (hydroxypropylcellulose) (HPC)
[5] = dose: 100.0 mg/kg/injection, schedule: Q01DX005 (ip), vehicle: Klucel (hydroxypropylcellulose) (HPC)
[6] = dose: 200.0 mg/kg/injection, schedule: Q01DX005 (ip), vehicle: Klucel (hydroxypropylcellulose) (HPC)
[7] = dose: 50.0 mg/kg/injection, schedule: Q01DX009 (ip), vehicle: saline with Tween-80
[8] = dose: 100.0 mg/kg/injection, schedule: Q01DX009 (ip), vehicle: saline with Tween-80
[9] = dose: 200.0 mg/kg/injection, schedule: Q01DX009 (ip), vehicle: saline with Tween-80
[10] = dose: 25.0 mg/kg/injection, schedule: Q01DX005 (ip), vehicle: Klucel (hydroxypropylcellulose) (HPC)
[11] = dose: 50.0 mg/kg/injection, schedule: Q01DX009 (ip), vehicle: saline
[12] = dose: 100.0 mg/kg/injection, schedule: Q01DX009 (ip), vehicle: saline
[13] = dose: 200.0 mg/kg/injection, schedule: Q01DX009 (ip), vehicle: saline

Measured: T/C

O=C(Nc1ccc([N+](=O)[O-])cc1)C1C(=O)C(=O)N(c2ccc([N+](=O)[O-])cc2)C1=O (stereo not drawn)
inactive: dose: 50.0 mg/kg/injection, schedule: Q01DX009 (ip), vehicle: Klucel (hydroxypropylcellulose) (HPC) 107 % of control | dose: 100.0 mg/kg/injection, schedule: Q01DX009 (ip), vehicle: Klucel (hydroxypropylcellulose) (HPC) 100 % of control | dose: 200.0 mg/kg/injection, schedule: Q01DX009 (ip), vehicle: Klucel (hydroxypropylcellulose) (HPC) 104 % of control

CCCCOCN(COCCCC)c1ccccc1
inactive: dose: 100.0 mg/kg/injection, schedule: Q01DX001 (ip), vehicle: saline with Tween-80 104 % of control | dose: 200.0 mg/kg/injection, schedule: Q01DX001 (ip), vehicle: saline with Tween-80 113 % of control | dose: 400.0 mg/kg/injection, schedule: Q01DX001 (ip), vehicle: saline with Tween-80 109 % of control

COc1cc(CC(O)c2cc(OC)c(OC)c(OC)c2)cc(OC)c1OC (stereo not drawn)
inactive: dose: 31.25 mg/kg/injection, schedule: Q01DX009 (ip), vehicle: saline + Tween-80 + alcohol 102 % of control | dose: 62.5 mg/kg/injection, schedule: Q01DX009 (ip), vehicle: saline + Tween-80 + alcohol 102 % of control | dose: 125.0 mg/kg/injection, schedule: Q01DX009 (ip), vehicle: saline + Tween-80 + alcohol 100 % of control | dose: 250.0 mg/kg/injection, schedule: Q01DX009 (ip), vehicle: saline + Tween-80 + alcohol 91 % of control

O=c1[nH]c(=O)n(C2OC(CO)C(O)C2O)c(=O)[nH]1 (stereo not drawn)
inactive: dose: 60.0 mg/kg/injection, schedule: Q01DX005 (ip), vehicle: saline 100 % of control | dose: 120.0 mg/kg/injection, schedule: Q01DX005 (ip), vehicle: saline 95 % of control | dose: 240.0 mg/kg/injection, schedule: Q01DX005 (ip), vehicle: saline 96 % of control

c1ccc(N2OCC3c4ccccc4-c4ccccc4C32)cc1 (stereo not drawn)
inactive: dose: 50.0 mg/kg/injection, schedule: Q04DX002 (ip), vehicle: suspension in saline 100 % of control | dose: 100.0 mg/kg/injection, schedule: Q04DX002 (ip), vehicle: suspension in saline 104 % of control | dose: 200.0 mg/kg/injection, schedule: Q04DX002 (ip), vehicle: suspension in saline 97 % of control

COc1ccccc1/C=C1/C(=O)ON=C1C
inactive: [1] 100 % of control | [2] 98 % of control | [3] 108 % of control

CCCCCn1c(C)cc(/C=C\c2ccc3cc(C)ccc3[n+]2C)c1C
inactive: dose: 0.5 mg/kg/injection, schedule: Q04DX003 (ip), vehicle: saline 118 % of control | dose: 1.0 mg/kg/injection, schedule: Q04DX003 (ip), vehicle: saline 109 % of control | dose: 2.0 mg/kg/injection, schedule: Q04DX003 (ip), vehicle: saline 109 % of control

COc1cc(C[C@H]2CC(=O)O[C@@H]2CO)cc(OC)c1OC
inactive: dose: 50.0 mg/kg/injection, schedule: Q04DX002 (ip), vehicle: saline with Tween-80 101 % of control | dose: 100.0 mg/kg/injection, schedule: Q04DX002 (ip), vehicle: saline with Tween-80 99 % of control | dose: 200.0 mg/kg/injection, schedule: Q04DX002 (ip), vehicle: saline with Tween-80 96 % of control

CN1C(=S)C(=N)OC1c1ccc(Cl)cc1Cl (stereo not drawn)
inactive: dose: 60.0 mg/kg/injection, schedule: Q01DX005 (ip), vehicle: Klucel + Tween-80 102 % of control | dose: 120.0 mg/kg/injection, schedule: Q01DX005 (ip), vehicle: Klucel + Tween-80 94 % of control | dose: 240.0 mg/kg/injection, schedule: Q01DX005 (ip), vehicle: Klucel + Tween-80 96 % of control

C=CC(c1ccccc1)C(O)(Cc1ccccc1)Cc1ccccc1 (stereo not drawn)
inactive: dose: 6.25 mg/kg/injection, schedule: Q01DX009 (ip), vehicle: DMSO 104 % of control | dose: 12.5 mg/kg/injection, schedule: Q01DX009 (ip), vehicle: DMSO 99 % of control | dose: 25.0 mg/kg/injection, schedule: Q01DX009 (ip), vehicle: DMSO 95 % of control

OC1=CC(=S)NC(c2ccccc2)C1 (stereo not drawn)
inactive: [4] 99 % of control | [5] 106 % of control | [6] 108 % of control

Cc1[nH]c(=O)[nH]c(=O)c1C=O
inactive: [7] 103 % of control | [8] 106 % of control | [9] 99 % of control

CCCCn1c(=S)sc2ccccc21
inactive: dose: 50.0 mg/kg/injection, schedule: Q04DX003 (ip), vehicle: saline with Tween-80 98 % of control | dose: 100.0 mg/kg/injection, schedule: Q04DX003 (ip), vehicle: saline with Tween-80 100 % of control | dose: 200.0 mg/kg/injection, schedule: Q04DX003 (ip), vehicle: saline with Tween-80 104 % of control | dose: 400.0 mg/kg/injection, schedule: Q04DX003 (ip), vehicle: saline with Tween-80 104 % of control

Cc1c(C)c(C)c(S(=O)(=O)NCCCNS(=O)(=O)c2c(C)c(C)c(C)c(C)c2C)c(C)c1C
inactive: [4] 98 % of control | [5] 94 % of control | [6] 89 % of control

CCCCN(CCCC)C(=O)C(O)C(=O)N(CCCC)CCCC
inactive: [10] 104 % of control | [4] 104 % of control | [5] 98 % of control | [6] 109 % of control

O=P(CSCCO)(c1ccccc1)c1ccccc1
inactive: [1] 89 % of control | [2] 93 % of control | [3] 97 % of control

c1ccc(CSc2nnc(NC3CCCCC3)s2)cc1
inactive: [7] 96 % of control | [8] 96 % of control | [9] 100 % of control

C[C@@H]1C(N2CCCC2)=CC(=O)OC1c1ccccc1 (stereo partly drawn)
inactive: [1] 105 % of control | [2] 109 % of control | [3] 111 % of control

CC1=CCC(CC2CO2)C1(C)C (stereo not drawn)
inactive: [11] 101 % of control | [12] 108 % of control

CC(C(=O)O)c1cccc2nc(-c3ccccc3)oc12 (stereo not drawn)
inactive: [8] 112 % of control | [9] 102 % of control

CCC[CH2][Sn]([CH2]CCC)([O]C(C)=O)[c]1ccccc1
inactive: dose: 1.56 mg/kg/injection, schedule: Q01DX009 (ip), vehicle: saline 97 % of control | dose: 3.12 mg/kg/injection, schedule: Q01DX009 (ip), vehicle: saline 103 % of control | dose: 6.25 mg/kg/injection, schedule: Q01DX009 (ip), vehicle: saline 96 % of control | [11] 97 % of control | [12] 95 % of control | [13] 100 % of control

O=C(Nn1c(=O)[nH]c2ccccc2c1=O)c1ccc(Cl)cc1
inactive: dose: 60.0 mg/kg/injection, schedule: Q01DX005 (ip), vehicle: Klucel (hydroxypropylcellulose) (HPC) 98 % of control | dose: 120.0 mg/kg/injection, schedule: Q01DX005 (ip), vehicle: Klucel (hydroxypropylcellulose) (HPC) 93 % of control | dose: 240.0 mg/kg/injection, schedule: Q01DX005 (ip), vehicle: Klucel (hydroxypropylcellulose) (HPC) 90 % of control

C=C(Cl)C(=NC(C)(C)C)Nc1ccc(Cl)cc1
inactive: dose: 6.25 mg/kg/injection, schedule: Q01DX005 (ip), vehicle: Klucel (hydroxypropylcellulose) (HPC) 114 % of control | dose: 12.5 mg/kg/injection, schedule: Q01DX005 (ip), vehicle: Klucel (hydroxypropylcellulose) (HPC) 117 % of control | [10] 112 % of control | [4] 110 % of control | [5] 115 % of control

CC(C)=CC(O)C/C(C)=C/CC/C(C)=C/CCC1(C)C(CCCO)/C(=C(/C)C=O)CCC1(C)O (stereo not drawn)
inactive: [10] 106 % of control | [4] 106 % of control | [5] 119 % of control | [6] 116 % of control

CC1CN(CCC#N)CC(C)O1 (stereo not drawn)
inactive: dose: 25.0 mg/kg/injection, schedule: Q01DX009 (ip), vehicle: saline 101 % of control | [11] 101 % of control | [12] 101 % of control | [13] 104 % of control
